Data as given in US20060127411A1 (priority 2002, published 2006).

Tests used:
[1] = system: IgE antibodies from the serum of patients with atopic eczema; type: binding, human
[2] = system: IgE antibodies from the serum of patients with atopic eczema; type: binding, human; remark: listed apart in the source
[3] = system: peripheral blood lymphocytes (PBMC); type: cell-based, human
[4] = system: peripheral blood lymphocytes (PBMC); type: cell-based, human; remark: listed apart in the source

Row | Substance | IgE binding in the immunoblot [1] | IgE binding in the dot blot [2] | also measured
1 | V Q T N K K K V T A Q E L D Y L T R H (VQTNKKKVTAQELDYLTRH) [Peptide (c)] | the only one to exhibit an IgE binding |  | 
2 | QEEDFLTLH [Peptide P2] |  | weak but clearly detectable IgE binding | Effect on proliferation of lymphocytes [3]: did not bring to light any significant effects; Intracellular IFNγ production [4]: P1 suppresses the production of IFNγ, a cytokine which mediates a number of immunological functions, more strongly than P2; Intracellular IL-4 production [4]: is stimulated as a function of the dosage; Ratio between IFNγ and IL-4 (IFNγ+ Th1 cells to IL-4+ Th2 cells) [4]: modified by the peptides as a function of the dosage in favour of the IL-4 producing Th2 lymphocytes
3 | S. aureus enterotoxin B [SEB, reference compound] | possible to detect specific IgE antibodies against SEB |  | 
4 | QELDYLTRH [Peptide P1] |  | weak but clearly detectable IgE binding | 
